Each block holds one compound with its values, some of them ahead of it.
How the values were obtained:
[1] = cited from earlier work; for t1/2: Table 1, daily dose 15-160 mg as listed; for half-life of elimination, normal, mean: drug given alone; for mean plasma elimination half-life: healthy adults, clinical studies
Barrett's esophagus = conditions: extended treatment (years), twice per day or more, with or without surgery; cited from earlier work
[2] = clinical trials; Zegerid (omeprazole) and Prevacid (lansoprazole) package inserts; cited from earlier work
[3] = Cross-over study, blood draws: AUC and half-life of PPI; format: in vivo, human; conditions: for prolongation factor of elimination half-life: omeprazole and lansoprazole administered together versus normal
Experimental: (§1) A study was performed as a cross-over design, with washout between doses. The subject received the test article after placing a Bravo pH probe in the stomach and verifying its placement with pH readings of less than 2. After a baseline evaluation, to ensure that the pH probe is in the correct place for reading gastric acid in the stomach, the subject has an intravenous access established and a baseline blood draw was taken to provide evidence of a lack of PPI in the blood at baseline. The subject received the one of three different formulations, and the time of administration was noted. Blood draws were taken at intervals to characterize the absorption, distribution and elimination phases of the test article. […] Continuous gastric pH recording was made utilizing the Bravo pH probe and radiofrequency receiver. Gastric pH values were recorded every 10 seconds.
as §1, with “eighteen” for “three”

[4] = tested on: 2C19 and 3A4 isoforms of the Cytochrome P450 enzyme; conditions: liver; cited from earlier work
[5] = rats; drug or its metabolites; cited from earlier work
intragastric acidity = conditions: after a single dose of PPI (Day 1); 20 mg delayed release; cited from earlier work

Structure (SMILES): COc1ccnc(C[S+]([O-])c2nc3ccc(OC(F)F)cc3[nH]2)c1OC (stereo not shown) [Pantoprazole]
t1/2 [1]: 1.2 to 1.5 h

Structure (SMILES): COc1ccc2nc([S@@+]([O-])Cc3ncc(C)c(OC)c3C)[nH]c2c1 [Esomerprazole]
t1/2 [1]: 1.1 to 1.6 h

Structure (SMILES): COc1ccc2[nH]c([S+]([O-])Cc3ncc(C)c(OC)c3C)nc2n1 (stereo not shown) [Tentaoprazole, 5-methoxy-2-[[(4-methoxy-3,5-dimethyl-2-pyridyl)methyl]sulfinyl]imidazo[4,5-b]pyridine]
t1/2 [1]: 6.8 to 8 h

half-life ([3]; human, blood, oral, omeprazole and lansoprazole together, e.g. 80 mg lansoprazole+80 mg omeprazole+1680 mg sodium bicarbonate, read-out: elimination half-life when administered together (converted)): 3.7 h | prolongation factor of elimination half-life [3]: 300%
Structure (SMILES): Cc1c(OCC(F)(F)F)ccnc1C[S+]([O-])c1nc2ccccc2[nH]1 (stereo not shown) [Lansoprazole]
t1/2 [1]: 1 to 1.5 h | half-life of elimination, normal, mean [1]: approximately 1.2 hrs | mean plasma elimination half-life [1]: about 1.5 hours | patients with reversal of Barrett's esophagus (Barrett's esophagus): 3 of 123 | Adverse effect: Abdominal pain [2]: 2.1 % of patients | Adverse effect: Asthenia [2]: <1 % of patients | Adverse effect: Constipation [2]: 1.0 % of patients | Adverse effect: Diarrhea [2]: 3.8 % of patients | Adverse effect: Headache [2]: <1 % of patients | metabolism by Cytochrome P450 isoforms [4]: approximately equal amounts by both the 2C19 and 3A4 isoforms | excretion in breast milk [5]: excreted in breast milk

Structure (SMILES): Cc1c(OCC(F)(F)F)ccnc1C[S@@+]([O-])c1nc2ccccc2[nH]1 [Dexlansoprazole]
t1/2 [1]: 1 to 1.6 h

Structure (SMILES): COCCCOc1ccnc(C[S+]([O-])c2nc3ccccc3[nH]2)c1C (stereo not shown) [Rabeprazole]
t1/2 [1]: 0.8 to 1 h

prolongation factor of elimination half-life [3]: 200% | elimination half-life when administered together ([3]; omeprazole and lansoprazole together, e.g. 80 mg lansoprazole+80 mg omeprazole+1680 mg sodium bicarbonate): 1.9 h
Structure (SMILES): COc1ccc2[nH]c([S+]([O-])Cc3ncc(C)c(OC)c3C)nc2c1 (stereo not shown) [Omeprazole, 5-methoxy-2-[[(4-methoxy-3,5-dimethyl-2-pyridinyl)methyl]sulfinyl]-1H benzimidazole]
t1/2 [1]: 0.9 to 1.5 h | half-life of elimination, normal, mean [1]: approximately 0.95 hrs | mean plasma elimination half-life [1]: less than 1 hours | patients with reversal of Barrett's esophagus (Barrett's esophagus): 3 of 123 | Adverse effect: Abdominal pain [2]: 5.2 % of patients | Adverse effect: Asthenia [2]: 1.3 % of patients | Adverse effect: Constipation [2]: 1.5 % of patients | Adverse effect: Diarrhea [2]: 3.7 % of patients | Adverse effect: Headache [2]: 2.9 % of patients | metabolism by Cytochrome P450 isoforms [4]: mostly by the 2C19 isoform | IGA-24Day 1 (intragastric acidity): 640 mmol·h/L
